{"source": "patent US12029771B2", "about": "“Neem for treatment of RLS” (priority 2018, dated 2024)", "test_system": "symptoms of restless legs syndrome (RLS)", "assay": "Treatment of RLS patient, Case No. 1", "format": "in vivo, human", "settings": "L-Dopa treatment before neem"}
{"smiles": "N[C@@H](Cc1ccc(O)c(O)c1)C(=O)O", "note": "[L-Dopa]", "values": [{"measurement": "symptoms of RLS under exposure to L-Dopa", "value": "did not completely cease"}]}
